Read-outs that look alike come from different tables or passages of the source.

Series [1] concerns OATP1B1, OATP1B3, and OATP2B1. Description: Uptake (intracellular accumulation) kinetics in ABCC2/OATP1B1/1B3/2B1 quadruple-transfected MDCKII cells. Format: in vitro ADME, human. The settings on record: for Km: human. On the procedure: (a) MDCKII cells were grown on ThinCerts (24-mm diameter, pore size 0.4 μm, pore density 1×10^8 per cm^2) and induced with butyrate as mentioned above. The cells were washed in prewarmed (37° C.) transport buffer (142 mM NaCl, 5 mM KCl, 1 mM KH2PO4, 1.2 mM MgSO4, 1.5 mM CaCl2, 5 mM glucose, and 12.5 mM HEPES, pH 7.3). The ^3H-labeled substrate was dissolved in transport buffer and added either to the apical or to the basolateral compartment at the concentration indicated. After incubation at 37° C., the radioactivity in the opposite compartment was measured by sampling aliquots from the apical or basolateral compartment. Cells were washed 2 times with ice-cold transport buffer containing 0.5% bovine serum albumin and 3 times in ice-cold transport buffer. Intracellular accumulation of radioactivity was calculated by lyzing the cells with 0.2% sodium dodecyl sulfate (SDS) and measuring the radioactivity in the lysate.

In series [2] the target is T1, OATP1B1 (Homo sapiens, UniProt Q9Y6L6).
T1 sequence (Q9Y6L6 1-691): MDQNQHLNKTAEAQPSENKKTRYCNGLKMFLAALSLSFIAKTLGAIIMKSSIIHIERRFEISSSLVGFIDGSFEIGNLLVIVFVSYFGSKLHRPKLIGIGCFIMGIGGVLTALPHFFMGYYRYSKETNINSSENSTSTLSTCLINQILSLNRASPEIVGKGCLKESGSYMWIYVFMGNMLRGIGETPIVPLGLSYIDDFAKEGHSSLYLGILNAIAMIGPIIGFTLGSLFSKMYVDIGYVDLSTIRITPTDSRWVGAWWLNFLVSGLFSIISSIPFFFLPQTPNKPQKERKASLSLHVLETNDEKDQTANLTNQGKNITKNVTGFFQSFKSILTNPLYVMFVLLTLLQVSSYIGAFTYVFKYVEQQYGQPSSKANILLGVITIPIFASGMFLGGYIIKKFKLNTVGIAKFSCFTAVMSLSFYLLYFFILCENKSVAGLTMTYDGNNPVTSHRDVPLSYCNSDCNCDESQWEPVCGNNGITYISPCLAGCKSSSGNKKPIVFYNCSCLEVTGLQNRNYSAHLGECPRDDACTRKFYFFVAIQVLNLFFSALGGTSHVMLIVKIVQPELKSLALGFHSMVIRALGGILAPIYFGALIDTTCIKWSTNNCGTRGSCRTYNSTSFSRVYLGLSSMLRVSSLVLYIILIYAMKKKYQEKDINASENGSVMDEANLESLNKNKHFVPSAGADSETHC
The settings on record: BSP uptake, background section; cited from earlier work.

In the next series the target is T2, OATP1B3 (Homo sapiens, UniProt Q9NPD5).
T2 sequence (Q9NPD5 1-702): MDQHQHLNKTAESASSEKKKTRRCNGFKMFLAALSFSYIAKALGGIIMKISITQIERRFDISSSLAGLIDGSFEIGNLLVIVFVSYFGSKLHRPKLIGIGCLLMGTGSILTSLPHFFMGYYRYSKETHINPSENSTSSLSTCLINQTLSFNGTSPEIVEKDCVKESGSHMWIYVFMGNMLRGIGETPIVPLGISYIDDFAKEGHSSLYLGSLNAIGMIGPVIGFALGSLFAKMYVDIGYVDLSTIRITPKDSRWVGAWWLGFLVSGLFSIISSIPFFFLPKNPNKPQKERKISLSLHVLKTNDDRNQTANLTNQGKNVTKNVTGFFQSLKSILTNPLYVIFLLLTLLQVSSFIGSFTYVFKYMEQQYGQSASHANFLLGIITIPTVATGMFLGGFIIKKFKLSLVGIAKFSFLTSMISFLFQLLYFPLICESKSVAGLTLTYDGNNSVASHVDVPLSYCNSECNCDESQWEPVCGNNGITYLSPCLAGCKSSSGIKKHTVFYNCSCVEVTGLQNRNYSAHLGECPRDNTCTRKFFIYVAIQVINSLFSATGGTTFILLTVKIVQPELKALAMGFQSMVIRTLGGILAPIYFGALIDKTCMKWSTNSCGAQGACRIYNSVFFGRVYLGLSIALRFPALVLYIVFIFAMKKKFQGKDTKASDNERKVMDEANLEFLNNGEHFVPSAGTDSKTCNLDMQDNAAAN
The settings on record: BSP uptake, background section; cited from earlier work.

For series [3], the target named is T1, OATP1B1. The settings on record: cRNA-injected Xenopus laevis oocytes; cited from earlier work.
In a further series the target is T3, OATP2B1 (Homo sapiens, UniProt O94956).
T3 sequence (O94956 1-709): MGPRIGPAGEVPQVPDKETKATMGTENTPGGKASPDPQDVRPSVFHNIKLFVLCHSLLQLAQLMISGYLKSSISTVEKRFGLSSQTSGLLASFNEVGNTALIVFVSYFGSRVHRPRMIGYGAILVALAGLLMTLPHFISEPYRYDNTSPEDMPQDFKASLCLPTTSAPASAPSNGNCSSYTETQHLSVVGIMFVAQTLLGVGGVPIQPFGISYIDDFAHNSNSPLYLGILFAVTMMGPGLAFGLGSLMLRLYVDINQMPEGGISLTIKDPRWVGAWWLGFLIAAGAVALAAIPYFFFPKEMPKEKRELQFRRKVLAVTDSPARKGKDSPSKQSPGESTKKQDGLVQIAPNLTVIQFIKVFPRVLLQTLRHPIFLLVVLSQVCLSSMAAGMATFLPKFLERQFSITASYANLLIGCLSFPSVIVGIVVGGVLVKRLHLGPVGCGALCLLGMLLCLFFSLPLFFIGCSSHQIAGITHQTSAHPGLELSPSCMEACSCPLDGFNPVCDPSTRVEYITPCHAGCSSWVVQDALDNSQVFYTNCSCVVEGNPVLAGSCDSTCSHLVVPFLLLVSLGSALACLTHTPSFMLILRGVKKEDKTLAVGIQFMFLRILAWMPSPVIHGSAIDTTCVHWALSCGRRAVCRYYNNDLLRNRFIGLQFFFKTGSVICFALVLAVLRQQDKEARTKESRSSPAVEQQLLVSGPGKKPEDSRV
The settings on record: cRNA-injected Xenopus laevis oocytes; cited from earlier work.

The target in a further series is ABCC2 (Homo sapiens, UniProt Q92887). Further details: expressed in transfected cells; host or cells: MDCKII-ABCC2 single-transfected cells (membrane vesicles). The following applies: BSP: Cui et al., 2001; CCK-8: Letschert et al., 2005; cited from earlier work.
Chain of ABCC2 (Q92887 whole entry): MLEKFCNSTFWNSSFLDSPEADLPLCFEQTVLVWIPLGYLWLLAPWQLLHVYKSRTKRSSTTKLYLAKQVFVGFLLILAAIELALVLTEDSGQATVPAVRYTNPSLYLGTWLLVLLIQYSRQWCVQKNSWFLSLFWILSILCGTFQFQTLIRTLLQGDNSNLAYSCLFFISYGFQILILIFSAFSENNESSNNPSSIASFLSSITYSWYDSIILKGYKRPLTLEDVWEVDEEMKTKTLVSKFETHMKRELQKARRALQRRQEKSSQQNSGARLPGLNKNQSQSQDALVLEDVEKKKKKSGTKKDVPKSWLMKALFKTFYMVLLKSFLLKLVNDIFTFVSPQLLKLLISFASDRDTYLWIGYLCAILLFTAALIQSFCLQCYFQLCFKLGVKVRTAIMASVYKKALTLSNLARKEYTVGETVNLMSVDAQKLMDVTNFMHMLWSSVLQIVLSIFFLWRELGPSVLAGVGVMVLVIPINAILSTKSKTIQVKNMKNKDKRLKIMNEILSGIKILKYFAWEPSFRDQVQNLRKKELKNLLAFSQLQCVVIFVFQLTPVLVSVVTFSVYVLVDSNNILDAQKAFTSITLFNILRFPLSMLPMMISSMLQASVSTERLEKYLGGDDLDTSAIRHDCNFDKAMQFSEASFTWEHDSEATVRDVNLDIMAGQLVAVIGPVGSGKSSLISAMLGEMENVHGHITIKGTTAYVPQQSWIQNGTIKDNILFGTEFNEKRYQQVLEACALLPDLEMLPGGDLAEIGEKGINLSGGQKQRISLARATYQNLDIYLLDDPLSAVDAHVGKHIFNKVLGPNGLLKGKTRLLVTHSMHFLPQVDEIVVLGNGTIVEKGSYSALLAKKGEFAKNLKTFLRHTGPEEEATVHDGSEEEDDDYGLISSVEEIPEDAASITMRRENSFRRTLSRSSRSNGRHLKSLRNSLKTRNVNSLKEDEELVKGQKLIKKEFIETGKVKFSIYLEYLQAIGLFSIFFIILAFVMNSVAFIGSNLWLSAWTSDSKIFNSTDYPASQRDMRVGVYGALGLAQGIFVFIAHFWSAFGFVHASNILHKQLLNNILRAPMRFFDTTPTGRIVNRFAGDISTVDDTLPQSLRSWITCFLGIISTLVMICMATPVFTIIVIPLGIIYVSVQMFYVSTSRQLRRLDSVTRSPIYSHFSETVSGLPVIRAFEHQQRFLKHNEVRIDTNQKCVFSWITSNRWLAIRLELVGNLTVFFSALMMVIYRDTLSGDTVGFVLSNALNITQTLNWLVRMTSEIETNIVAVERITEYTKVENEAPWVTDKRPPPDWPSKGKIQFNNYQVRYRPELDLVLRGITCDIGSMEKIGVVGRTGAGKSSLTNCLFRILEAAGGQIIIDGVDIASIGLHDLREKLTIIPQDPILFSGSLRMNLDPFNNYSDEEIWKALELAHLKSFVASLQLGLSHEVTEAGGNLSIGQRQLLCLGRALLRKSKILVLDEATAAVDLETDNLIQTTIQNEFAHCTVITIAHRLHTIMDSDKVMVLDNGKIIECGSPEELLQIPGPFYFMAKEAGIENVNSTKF

In series [1] (ABCC2/OATP1B1/1B3/2B1 quadruple-transfectants), `O=C1OC(c2ccc(O)c(S(=O)(=O)O)c2)(c2ccc(O)c(S(=O)(=O)O)c2)c2c(Br)c(Br)c(Br)c(Br)c21` [Bromosulfophthalein] gave a maximal velocity of 197.8 pmol×mg protein×min^−1. Further, the Vmax in series [1] (cell line ABCC2-OATP1B1/1B3/2B1 (quadruple-transfectant), intracellular accumulation of 3H-labeled substrate) is 197.8 ± 3.0 pmol · mg protein^−1 · min^−1. Besides, the Km in series [1] (pH 7.3, cell line ABCC2-OATP1B1/1B3/2B1 (quadruple-transfectant), intracellular accumulation of 3H-labeled substrate, read-out: Km) is 4.8 µM; in series [1] (pH 7.3, summary bound for the OATPs, referring to Table 1, read-out: Km values for the OATPs), less than 5 µM; at OATP1B1 [2] it was 0.14 µM; on OATP1B3 it was 3.4 µM; on OATP1B1 [3] it was 0.3 µM; on OATP2B1, 0.7 µM. Moreover, the Km at ABCC2 is 12 µM.

Usually Km stands for the concentration of substrate that gives half-maximal velocity.

(Values after patent US20080038728A1, “Quadruple Transformed Cell Line Useful for the Identification of Transport Inhibitors” (priority 2004, published 2008).)
